For 61 compounds, melting point results are on record in patent publication US20110130397A1, “PYRROLINONE COMPOUNDS AS INHIBITORS OF BACTERIAL PEPTIDYL TRNA HYDROLASE AND USES THEREOF” (priority 2006, published 2011).

Several values for one entry are separate records, joined by “and”; a condition that tells them apart may be missing. Identical values can stand only once.

`Cc1ccc(C(=O)C2=C(O)C(=O)N(c3nc4ccc(Cl)cc4s3)C2c2ccc(Oc3ccccc3)cc2)o1` (stereo not shown) [Compound 467]: the melting point (usually the temperature, or range, at which the solid turns liquid) lay within 238 to 239 °C.

In turn, `Cc1ccc(C(=O)C2=C(O)C(=O)N(c3nc4ccc(F)cc4s3)C2c2ccc(Oc3ccccc3)cc2)o1` (stereo not shown) [Compound 468] yielded a melting point of 172 to 173 °C.

`Cc1ccc(C(=O)C2=C(O)C(=O)N(c3nc4c(Cl)cccc4s3)C2c2ccc(Oc3ccccc3)cc2)o1` (stereo not shown) [Compound 469] registered a melting point of 208 to 209 °C.

As to `Cc1ccc(C(=O)C2=C(O)C(=O)N(c3nc4ccc(Cl)cc4s3)C2c2ccc(OCc3ccccc3)cc2)o1` (stereo not shown) [Compound 470], the melting point is 196 to 197 °C.

As for `Cc1ccc(C(=O)C2=C(O)C(=O)N(c3nc4ccc(F)cc4s3)C2c2ccc(OCc3ccccc3)cc2)o1` (stereo not shown) [Compound 471], the melting point was in the range of 191 to 193 °C.

`Cc1ccc(C(=O)C2=C(O)C(=O)N(c3nc4c(Cl)cccc4s3)C2c2ccc(OCc3ccccc3)cc2)o1` (stereo not shown) [Compound 472]: the melting point was 240 to 241 °C.

The compound `Cc1ccc(C(=O)C2=C(O)C(=O)N(c3nc4ccc(Cl)cc4s3)C2c2cccc(Oc3ccccc3)c2)o1` (stereo not shown) [Compound 473] displayed a melting point of 226 to 227 °C.

Regarding `Cc1ccc(C(=O)C2=C(O)C(=O)N(c3nc4ccc(Cl)cc4s3)C2c2cccc(OCc3ccccc3)c2)o1` (stereo not shown) [Compound 475], the melting point was 215 to 216 °C and 213 to 214 °C.

`Cc1ccc(C(=O)C2=C(O)C(=O)N(c3nc4ccc(F)cc4s3)C2c2cccc(OCc3ccccc3)c2)o1` (stereo not shown) [Compound 476] returned a melting point of 187 to 188 °C.

The compound `Cc1ccc(C(=O)C2=C(O)C(=O)N(c3nc4ccc(Cl)cc4s3)C2c2ccc(OCCO)cc2)o1` (stereo not shown) [Compound 477] yielded a melting point of 209 to 210 °C.

`Cc1ccc(C(=O)C2=C(O)C(=O)N(c3nc4ccc(F)cc4s3)C2c2ccc(OCCO)cc2)o1` (stereo not shown) [Compound 478] yielded a melting point of 134 to 135 °C.

`Cc1ccc(C(=O)C2=C(O)C(=O)N(c3nc4ccc(Cl)cc4s3)C2c2ccc(OCCCN(C)C)cc2)o1` (stereo not shown) [Compound 479]: the melting point was 211 to 213 °C.

Regarding `Cc1ccc(C(=O)C2=C(O)C(=O)N(c3nc4ccc(F)cc4s3)C2c2ccc(OCCCN(C)C)cc2)o1` (stereo not shown) [Compound 480], the melting point lay in the range of 209 to 211 °C.

`COc1ccccc1CC(=O)C1=C(O)C(=O)N(c2nc3ccc(Cl)cc3s2)C1c1ccccc1F` (stereo not shown) [Compound 481] returned a melting point of 186 to 188 °C.

As for `COc1ccccc1CC(=O)C1=C(O)C(=O)N(c2nc3ccc(F)cc3s2)C1c1ccccc1F` (stereo not shown) [Compound 482], the melting point was in the range of 207 to 208 °C.

With `COc1ccccc1CC(=O)C1=C(O)C(=O)N(c2nc3c(Cl)cccc3s2)C1c1ccccc1F` (stereo not shown) [Compound 483], the melting point fell in the range of 224 to 226 °C.

As to `COc1ccccc1CC(=O)C1=C(O)C(=O)N(c2nc3ccc(Cl)cc3s2)C1c1ccc(F)cc1` (stereo not shown) [Compound 484], the melting point was in the range of 253 to 255 °C.

`COc1ccccc1CC(=O)C1=C(O)C(=O)N(c2nc3ccc(F)cc3s2)C1c1ccc(F)cc1` (stereo not shown) [Compound 485] displayed a melting point of 223 to 224 °C.

Regarding `COc1ccccc1CC(=O)C1=C(O)C(=O)N(c2nc3c(Cl)cccc3s2)C1c1ccc(F)cc1` (stereo not shown) [Compound 486], the melting point lay in the range of 243 to 245 °C.

On to `COc1ccccc1CC(=O)C1=C(O)C(=O)N(c2nc3ccc(Cl)cc3s2)C1c1ccc(Cl)cc1` (stereo not shown) [Compound 487], for which the melting point lay within 247 to 248 °C.

For the compound `COc1ccccc1CC(=O)C1=C(O)C(=O)N(c2nc3ccc(F)cc3s2)C1c1ccc(Cl)cc1` (stereo not shown) [Compound 488], the melting point fell in the range of 249 to 250 °C.

On to `COc1ccccc1CC(=O)C1=C(O)C(=O)N(c2nc3c(Cl)cccc3s2)C1c1ccc(Cl)cc1` (stereo not shown) [Compound 489], for which the melting point was in the range of 176 to 178 °C.

Compound `Cc1ccc(C(=O)C2=C(O)C(=O)N(CCCN(CCCNC(=O)OC(C)(C)C)C(=O)OC(C)(C)C)C2c2ccc(F)cc2)o1` (stereo not shown) [Compound 490] showed a melting point of 146 to 148 °C.

The compound `Cc1ccc(C(=O)C2=C(O)C(=O)N(CCCNCCCN)C2c2ccc(F)cc2)o1` (stereo not shown) [Compound 491] registered a melting point of 126 to 128 °C.

Take `CCOC(=O)CCC(=O)C1=C(O)C(=O)N(c2nc3ccc(Cl)cc3s2)C1c1ccccc1F` (stereo not shown) [Compound 493]: the melting point fell in the range of 206 to 207 °C.

Take `CCOC(=O)CCC(=O)C1=C(O)C(=O)N(c2nc3ccc(Cl)cc3s2)C1c1ccc(F)cc1` (stereo not shown) [Compound 494]: the melting point lay in the range of 224 to 225 °C.

As to `CCOC(=O)CCC(=O)C1=C(O)C(=O)N(c2nc3ccc(Cl)cc3s2)C1c1ccc(Cl)cc1` (stereo not shown) [Compound 495], the melting point is 244 to 245 °C.

For the compound `CCOC(=O)CCC(=O)C1=C(O)C(=O)N(c2nc3ccc(F)cc3s2)C1c1ccccc1F` (stereo not shown) [Compound 496], the melting point was in the range of 184 to 185 °C.

Turning to `CCOC(=O)CCC(=O)C1=C(O)C(=O)N(c2nc3ccc(F)cc3s2)C1c1ccc(F)cc1` (stereo not shown) [Compound 497], the melting point was in the range of 201 to 202 °C.

`CCOC(=O)CCC(=O)C1=C(O)C(=O)N(c2nc3ccc(F)cc3s2)C1c1ccc(Cl)cc1` (stereo not shown) [Compound 498] gave a melting point of 219 to 220 °C.

Turning to `CCOC(=O)CCC(=O)C1=C(O)C(=O)N(c2nc3c(Cl)cccc3s2)C1c1ccccc1F` (stereo not shown) [Compound 499], the melting point was 180 to 182 °C.

Take `CCOC(=O)CCC(=O)C1=C(O)C(=O)N(c2nc3c(Cl)cccc3s2)C1c1ccc(F)cc1` (stereo not shown) [Compound 500]: the melting point lay within 178 to 179 °C.

The compound `CCOC(=O)CCC(=O)C1=C(O)C(=O)N(c2nc3c(Cl)cccc3s2)C1c1ccc(Cl)cc1` (stereo not shown) [Compound 501] had a melting point of 215 to 216 °C.

`Cc1ccc(C(=O)C2=C(O)C(=O)N(Cc3ccco3)C2c2ccccc2F)o1` (stereo not shown) [Compound 502] registered a melting point of 177 to 178 °C.

The compound `Cc1ccc(C(=O)C2=C(O)C(=O)N(Cc3ccco3)C2c2ccc(F)cc2)o1` (stereo not shown) [Compound 503] returned a melting point of 213 to 214 °C.

For the compound `Cc1ccc(C(=O)C2=C(O)C(=O)N(Cc3cccs3)C2c2ccccc2F)o1` (stereo not shown) [Compound 504], the melting point lay within 193 to 194 °C.

`Cc1ccc(C(=O)C2=C(O)C(=O)N(Cc3cccs3)C2c2ccc(F)cc2)o1` (stereo not shown) [Compound 505]: the melting point fell in the range of 225 to 226 °C.

The compound `Cc1ccc(C(=O)C2=C(O)C(=O)N(c3ccc4ncsc4c3)C2c2ccccc2F)o1` (stereo not shown) [Compound 564] returned a melting point of 231 to 232 °C.

For the compound `Cc1ccc(C(=O)C2=C(O)C(=O)N(c3ccc4ncsc4c3)C2c2ccc(F)cc2)o1` (stereo not shown) [Compound 565], the melting point lay within 221 to 222 °C.

`Cc1ccc(C(=O)C2=C(O)C(=O)N(Cc3nc4ccccc4[nH]3)C2c2ccccc2F)o1` (stereo not shown) [Compound 566] yielded a melting point of 91 to 93 °C.

`Cc1ccc(C(=O)C2=C(O)C(=O)N(Cc3nc4ccccc4[nH]3)C2c2ccc(F)cc2)o1` (stereo not shown) [Compound 567] returned a melting point of 96 to 100 °C.

`O=C(O)CCC(=O)C1=C(O)C(=O)N(c2nc3ccc(Cl)cc3s2)C1c1ccccc1F` (stereo not shown) [Compound 568] showed a melting point of 258 to 260 °C.

Compound `O=C(O)CCC(=O)C1=C(O)C(=O)N(c2nc3ccc(Cl)cc3s2)C1c1ccc(F)cc1` (stereo not shown) [Compound 569] came in with a melting point of 262 to 263 °C.

For the compound `O=C(C1=C(O)C(=O)N(c2nc3c(Cl)cccc3s2)C1c1ccc(F)cc1)C1CC2C=CC1C2` (stereo not shown) [Compound 570], the melting point was 216 to 218 °C.

`O=C(C1=C(O)C(=O)N(c2nc3ccc(Cl)cc3s2)C1c1ccccc1F)C1CCC1` (stereo not shown) [Compound 571] had a melting point of 262 to 263 °C.

For `O=C(C1=C(O)C(=O)N(c2nc3ccc(Cl)cc3s2)C1c1ccc(F)cc1)C1CCC1` (stereo not shown) [Compound 572], the melting point was in the range of 271 to 273 °C.

In the case of `O=C(C1=C(O)C(=O)N(c2nc3c(Cl)cccc3s2)C1c1ccccc1F)C1CCC1` (stereo not shown) [Compound 573], the melting point was in the range of 220 to 221 °C.

Compound `O=C(C1=C(O)C(=O)N(c2nc3c(Cl)cccc3s2)C1c1ccc(F)cc1)C1CCC1` (stereo not shown) [Compound 574] registered a melting point of 232 to 233 °C.

Compound `COCCOc1ccc(CCC(=O)C2=C(O)C(=O)N(c3nc4ccc(Cl)cc4s3)C2c2ccccc2F)cc1` (stereo not shown) [Compound 575] yielded a melting point of 219 to 220 °C.

In turn, `COCCOc1ccc(CCC(=O)C2=C(O)C(=O)N(c3nc4ccc(Cl)cc4s3)C2c2ccc(F)cc2)cc1` (stereo not shown) [Compound 576] gave a melting point of 226 to 227 °C.

For `COCCOc1ccc(CCC(=O)C2=C(O)C(=O)N(c3nc4c(Cl)cccc4s3)C2c2ccccc2F)cc1` (stereo not shown) [Compound 577], the melting point fell in the range of 179 to 180 °C.

In turn, `COCCOc1ccc(CCC(=O)C2=C(O)C(=O)N(c3nc4c(Cl)cccc4s3)C2c2ccc(F)cc2)cc1` (stereo not shown) [Compound 578] registered a melting point of 182 to 183 °C.

Compound `O=C(C1=C(O)C(=O)N(c2nc3ccc(Cl)cc3s2)C1c1ccccc1F)C1CC2C=CC1C2` (stereo not shown) [Compound 579] had a melting point of 205 to 206 °C.

As for `Cc1ccc(C(=O)C2=C(O)C(=O)N(CCc3c[nH]c4ccccc34)C2c2ccccc2F)o1` (stereo not shown) [Compound 593], the melting point fell in the range of 197 to 198 °C.

Consider `Cc1ccc(C(=O)C2=C(O)C(=O)N(CCc3c[nH]c4ccccc34)C2c2ccc(F)cc2)o1` (stereo not shown) [Compound 594], for which the melting point was in the range of 157 to 158 °C.

In turn, `Cc1ccc(C(=O)C2=C(O)C(=O)N(CCc3c[nH]c4ccccc34)C2c2ccc(Cl)cc2)o1` (stereo not shown) [Compound 595] yielded a melting point of 165 to 166 °C.

In turn, `Cc1ccc(C(=O)C2=C(O)C(=O)N(c3nc4ccc(Cl)cc4s3)C2c2ccc3c(c2)OCCO3)o1` (stereo not shown) [Compound 596] registered a melting point of 236 to 237 °C.

In the case of `Cc1ccc(C(=O)C2=C(O)C(=O)N(c3nc4ccc(F)cc4s3)C2c2ccc3c(c2)OCCO3)o1` (stereo not shown) [Compound 597], the melting point lay within 236 to 237 °C.

With `Cc1ccc(C(=O)C2=C(O)C(=O)N(c3nc4c(Cl)cccc4s3)C2c2ccc3c(c2)OCCO3)o1` (stereo not shown) [Compound 598], the melting point is 251 to 252 °C.

Consider `Cc1ccc(C(=O)C2=C(O)C(=O)N(c3nc4ccc(Cl)cc4s3)C2c2ccc3ccccc3c2)o1` (stereo not shown) [Compound 599], for which the melting point fell in the range of 255 to 257 °C.

The compound `Cc1ccc(C(=O)C2=C(O)C(=O)N(c3nc4ccc(F)cc4s3)C2c2ccc3ccccc3c2)o1` (stereo not shown) [Compound 600] registered a melting point of 254 to 256 °C.
